Reference: patent US9771331B2, “Methods of identifying neuroprotective compounds for retinal ganglion cells” (THE JOHNS HOPKINS UNIVERSITY, priority 2005, dated 2017)
Entries after “also recorded” stand apart in the source; their conditions may differ.

B1: BMP13: bone morphogenetic protein, member of the TGFβ superfamily (protein, UniProt Q6KF10 336-455, looked up)
Growth/differentiation factor …: TAFASRHGKRHGKKSRLRCSKKPLHVNFKELGWDDWIIAPLEYEAYHCEGVCDFPLRSHLEPTNHAIIQTLMNSMDPGSTPPSCCVPTKLTPISILYIDAGNNVVYKQYEDMVVESCGCR
B2: TGFβ2: growth factor tested at 50 ng/ml on cultured RGCs (protein, UniProt P61812 303-414, looked up)
Transforming growth factor …: ALDAAYCFRNVQDNCCLRPLYIDFKRDLGWKWIHEPKGYNANFCAGACPYLWSSDTQHSRVLSLYNTINPEASASPCCVSQDLEPLTILYYIGKTPKIEQLSNMIVKSCKCS
B3: CNTF: peptide trophic factor (protein, UniProt P26441 1-200, looked up)
Ciliary neurotrophic factor: MAFTEHSPLTPHRRDLCSRSIWLARKIRSDLTALTESYVKHQGLNKNINLDSADGMPVASTDQWSELTEAERLQENLQAYRTFHVLLARLLEDQQVHFTPTEGDFHQAIHTLLLQVAAFAYQIEELMILLEYKIPRNEADGMPINVGDGGLFEKKLWGLKVLQELSQWTVRSIHDLRFISSHQTGIPARGSHYIANNKKM

Experiments:
[1] = test system: retinal ganglion cells (RGCs); test: High-content neurite outgrowth screen of purified retinal ganglion cell cultures (number of outgrowth neurons); assay type: cell-based, rat; settings: for activity compared with TPAO / activity of compounds similar to TPAO: 4 different concentrations; for number of outgrowth neurons: 50 ng/ml, 120 hours, versus cultures grown in medium only
Experimental: Retinal ganglion cell harvest and immunopurification are performed as described above and in the specific Examples, below. A concentration range of neuroprotective compounds to be validated is prepared and added to test wells (e.g., to achieve final concentrations of 3 μM, 10 μM, 15 μM, 30 μM, 60 μM, 90 μM, 120 μM, and 150 μM in 1% DMSO in each well). For a neuroprotective compound obtained from the […]™ library, for example, 1 mg of desiccated compound can be resuspended in 22.2 μl of DMSO to a final stock solution of 150 mM. […] Afterwards, the solution can be stored in the dark at −20° C.
Neuroprotective compounds and positive control factors are added to the appropriate wells of a 96-well plate (e.g., 25 μl to each well in a 5× concentration prior to the seeding cells in a volume of 100 μl giving a final volume of 125 μl). Cells are incubated, stained, and imaged as described above and in the specific Examples, below. Experiments preferably are performed in duplicate. Following normalization to a negative control (e.g., a well containing medium only), a dose response curve can be plotted. Statistical software (e.g., from SPSS) can be used to perform curve fitting and analysis.
An efficient two-step immunomagnetic purification of a mixed cell population obtained from postnatal rat retina is used to provide a highly enriched population of RGCs for culture. The first step is an immunomagnetic depletion of […] non-RCGS using a cd11b/c. The second step is an immunomagnetic selection of RGCs with an antibody that binds Thy1 on the RGC cell surface. The cells are then released from the magnetic beads by digesting the DNA linker with a low concentration of DNase. Cells are grown on poly-d-lysine/laminin coated plastic plates in a basic medium (Neurobasal media, B27 supplement, glutamine, and penicillin/streptomycin).
(§1) The purified Thy-1 immunoreactive cells are resuspended in growth media (Neurobasal media, B27 supplement, 2 mM glutamine, and 1 U/ml penicillin/streptomycin) and quantified using a hematocytometer. Cells are seeded in 100 μl at a density of 4000 cells/well (150/mm^2) in 96 well culture dishes (Falcon) that had been sequentially coated with poly-d-lysine (0.01 mg/ml) and laminin (0.01 μg/μl) (Sigma). Each well either contains 25 μl of media alone or 5× drug or 5×BDNF and forskolin. Final concentrations are: DMSO (1%), drug (20 to 30 μM), BDNF (50 ng/ml) and forskolin (10 μM). Culture dishes are placed in an incubator maintained at 37° C. and 5% CO2. One hour after seeding, a post-seeding viability is determined by staining with Hoechst and TOTO3 and calculating the percent of live cells.
(§2) After 120 hours of incubation, cells are stained with 5 μM Hoechst and 10 μM Calcein AM (Molecular Probes). Calcein AM (Calcein acetoxymethyl), the dye that is used to stain living cells and their neurites, is a green dye that is permeant to living cells. After internalization by cells, the nonfluorescent calcein AM is converted to fluorescent calcein upon hydrolysis of the acetoymethyl ester by intracellular esterases. Cleavage of the AM group occurs spontaneously when calcein AM is suspended in aqueous solution resulting in a significant increase in background fluorescence over time. TOTO3, which stains the nuclei of dead cells, can be used to determine viability.
Fifteen stereotypic field are autofocus imaged on a Cellomics […]® High Content Scan Reader using epifluorescence and filter sets corresponding to each of the two dyes. This instrument employs a Zeiss fluorescence microscope, a temperature and CO2 live cell chamber, an integrated liquid handling system, and image analysis software that permits staining, imaging, and analysis of the cells and their neurites in approximately 5 hours per plate.

[2] = test system: retinal ganglion cells (RGCs); test: RGCs on glass coverslips in 24-well plates, neurofilament immunostaining, counting neurons with neurite extension; assay type: cell-based, rat; settings: neurofilament antibody
Experimental: FIG. 4. […] Immunopurified postnatal rat RGCs were cultured in increasing concentrations of TPAO in the presence of 1% DMSO. […] The effect of TPAO is synergistic with both BDNF and forskolin.
Although the developed technique for performing cell culture is effective and objective, it is desirable to assess the outcome of a screen using a different technique. Thus, for example, the technique of culturing cells on poly d-lysine and laminin coated coverslips in 24 well culture dishes under various culture conditions can be followed by immunostaining with anti-neurofilament antibody and quantitative analysis.
After determination of the dose response relationship and concentration at which the neuroprotective compound has it is maximal effect in culture, cells can be cultured on poly d-lysine and laminin coated cover slips (BD Pharmingen) in the presence of the neuroprotective compound, with appropriate positive and negative controls. […]
For example, in one embodiment cells are fixed with 4% paraformaldehyde, washed with PBS, blocked with PBS/0.1% Triton X/20% goat serum, and incubated overnight in PBS/0.1% Triton X/20% goat serum containing 1:100 dilution of rabbit anti-neurofilament (68 kd) antibody (Chemicon). […] The number of cells with neurite outgrowth at 3 different radii is determined (Scholl analysis) and compared using Student t test.

[3] = test system: retinal ganglion cells (RGCs); test: Overall cell survival of cultured RGCs after 120 hours; assay type: cell-based, rat; settings: 50 ng/ml
Experimental: as §1, §2
Images are processed using the Cellomics Extended Neurite Outgrowth software program. In the initial image processing, cells are identified on the Hoechst channel and selected based on size such that of clusters of cells may be excluded from analysis. In addition, each nuclei on the Hoechst channel is matched to a calcein-stained cell and counted as a “valid neuron” (i.e., a live cell). Neurons can be further selected based on size in the calcein channel. The Extended Neurite Outgrowth program is used to trace neurites extending from these selected neurons. The mean neurite length, mean neurite count, mean number of branch points, and mean number of crosspoints are determined. In addition, the percent of cells with neurite features (e.g., neurite length, neurite count) surpassing a threshold of one standard deviation above the mean neurite characteristic of a set of reference wells containing cells and growth medium without additional growth factors is determined. The “neurite outgrowth” measurement is based on the combined mean neurite length and mean neurite count.

RGCs = settings: peptide trophic factors; Meyer-Franke et al. 1995; cited from earlier work

| Molecule | number of outgrowth neurons [1] | overall cell survival (number of surviving cells) [3] | also measured |
| --- | --- | --- | --- |
| CC1(C)CC(=NOC(=O)c2ccccc2)CC(C)(C)N1 [2,2,6,6-tetramethyl-4-piperidinone O-benzoyloxime] |  |  | activity compared with TPAO [1]: less than that of TPAO; activity of compounds similar to TPAO [1]: showed activity |
| CC1(C)CC(=NNC(N)=S)CC(C)(C)N1 [2,2,6,6-tetramethyl-4-piperidinone thiosemicarbazone] |  |  | activity compared with TPAO [1]: less than that of TPAO; activity of compounds similar to TPAO [1]: showed activity |
| CC(=O)ON=C1CC(C)(C)NC(C)(C)C1 [TPAO, 2,2,6,6-tetramethyl-4-piperidinone O-acetyloxime] |  |  | effect in combination with BDNF and forskolin [1]: synergistic; dose dependence of survival/growth of neurite-bearing RGCs ([1]; dose response 3 μM to 150 μM): dose-dependent manner; activity if the medium was changed at 24 hours ([1]; medium change at 24 hours): lost; effect on neurons with a neurite extension greater than one cell body in diameter [2]: demonstrated |
| BDNF: peptide trophic factor known to promote RGC survival; positive control | significantly increased; also recorded: Statistically significant increases | slight increase in the number of surviving cells that did not reach statistical significance | concentration of maximal effect on RGCs (RGCs): 10 ng/mL |
| GDF8: BMP-related myostatin/Gdf8 (Growth and differentiation factor 8) | significantly increased; also recorded: Statistically significant increases | slight increase in the number of surviving cells that did not reach statistical significance |  |
| TGFα: growth factor tested at 50 ng/ml on cultured RGCs | No significant change | no effect |  |
| TGFβ1: growth factor tested at 50 ng/ml on cultured RGCs | No significant change | no effect |  |
| B1 | significantly increased; also recorded: Statistically significant increases | no effect |  |
| B2 | No significant change | no effect |  |
| B3 |  |  | concentration of maximal effect on RGCs (RGCs): 0.1 ng/mL |
